Source: US20220380801A1, “TRIPARTITE SYSTEMS FOR PROTEIN DIMERIZATION AND METHODS OF USE” (priority 2019, published 2022)
Entries after “also recorded” stand apart in the source; their conditions may differ. Like-named read-outs stand apart in the source and are kept apart here.

Assays:
[1] = molecular target: HCV NS3/4A PR (S139A)/PRSIM_57 (Hepatitis C virus subtype 1a, UniProt A8DG50, A1066T/I1043Q/I1044E/L1039E/L1040E/L1047Q/S1165A, form not given); assay: Biacore 8K simeprevir titration of heterodimerisation; type: binding; conditions: read-out: EC50 of simeprevir for induction of heterodimerisation; 40 nM HCV NS3/4A PR (S139A), immobilised PRSIM_57
Protocol: (§1) The effect of simeprevir concentration on the formation of the HCV NS3/4A PR (S139A)/PRSIM binding molecule complex was also measured using the Biacore 8K. PRSIM_57 and PRSIM_23 were covalently immobilised on a CM5 chip surface, as before. Simeprevir was diluted 1:2 (0.0152-300 nM) in 10 mM Hepes pH 7.4, 150 mM NaCl, 0.05% Surfactant P20, 0.3% DMSO at a constant 40 nM HCV NS3/4A PR (S139A) concentration. The samples were flowed over the chip at 50 μl/min using multi cycle kinetics, with 240 sec association and 600 sec dissociation. Regeneration conditions were as described above. Titration curves for the induction of HCV NS3/4A PR (S139A)/PRSIM dimerization by simeprevir were generated. The response for each simeprevir concentration at 225 sec (15 sec before the end of the association) was normalized as a percentage of the response for 300 nM Simeprevir at 225 sec and plotted against the Simeprevir concentration. Each data point represents the mean of 3 independent experiments±s.e.m. The EC50 reported was calculated using nonlinear regression curve fit. The same method was used for the mutant HCV NS3/4A proteases, except simeprevir was diluted 1:2 (0.0457-900 or 0.412-8,100 nM) in 10 mM Hepes pH 7.4, 150 mM NaCl, 0.05% Surfactant P20, 0.82% DMSO at a constant 40 nM HCV NS3/4A PR (S139A) concentration and the response for each simeprevir concentration was normalized against the highest simeprevir concentration.

[2] = molecular target: HCV NS3/4A PR D168E/PRSIM_23 (Hepatitis C virus subtype 1a, UniProt A8DG50, D1194E/S1165A, form not given); assay: as above; type: binding; conditions: read-out: EC50 of simeprevir for induction of heterodimerisation; D168E protease, immobilised PRSIM_23
Protocol: as §1

[3] = molecular target: HCV NS3/4A PR (S139A)/PRSIM_23 (Hepatitis C virus subtype 1a, UniProt A8DG50, A1066T/I1043Q/I1044E/L1039E/L1040E/L1047Q/S1165A, form not given); assay: as above; type: binding; conditions: read-out: EC50 of simeprevir for induction of heterodimerisation, 40 nM ‘WT’ (S139A) protease, immobilised PRSIM_23
Protocol: as §1

[4] = molecular target: HCV NS3/4A PR K136N/PRSIM_23 (Hepatitis C virus subtype 1a, UniProt A8DG50, A1066T/I1043Q/I1044E/K1162N/L1039E/L1040E/L1047Q/S1165A, form not given); assay: as above; type: binding; conditions: read-out: EC50 of simeprevir for induction of heterodimerisation; K136N protease, immobilised PRSIM_23
Protocol: as §1

[5] = molecular target: HCV NS3/4A PR K136D/PRSIM_23 (Hepatitis C virus subtype 1a, UniProt A8DG50, K1162D/S1165A, form not given); assay: as above; type: binding
Protocol: as §1

[6] = tested on: Caspase 3 activity in kill switch-transduced HEK293 cells; assay: Kill switch Caspase 3 functional assay; type: cell-based, human; conditions: relative to non-transduced cells
Protocol: Lentiviral particles encoding the kill switch fusion protein (SEQ ID NO: 223) or kill switch S196A mutant fusion protein (SEQ ID NO: 230) were generated using pPACKH1 HIV lentiviral packaging kit (Systems Bioscience), according to manufacturer's instructions. HEK293 cells were transduced for 24 h in the presence of 8 μg/ml polybrene after which cells were changed into fresh growth medium (DMEM+10% foetal bovine serum+1% Non-essential amino acids). 24 h later transduced cells were selected by addition of 2 μg/ml puromycin for 5 days. Before functional testing, transduced cell pools were FACS sorted based on GFP fluorescence to isolate high expressing cell line pools and single cell clones.
Functional Caspase 9 activates Caspase 3, and this proteolytic activity can be determined using cleavage of non-fluorescent substrate DEVD-AMC into cleavage products DEVD and fluorescent AMC, such that AMC fluorescence signal at 430 nm is proportional to Caspase 3 activity. For the Caspase 3 assay, cells were plated in duplicate onto 6 well tissue-culture treated plates. […] Cells lysates were analysed in triplicate using a Caspase 3 assay from BD Biosciences according to manufacturer's instruction with the modification that total protein input was normalised to 50 μg by BCA assay (LifeTechnologies). Fluorescence was determined on an Envision plate reader (PerkinElmer), Ex: 380 nm, Em: 430 nm. […]

[7] = tested on: Caspase 3 activity in kill switch-transduced HCT116 cells; assay: Kill switch Caspase 3 functional assay; type: cell-based, human; conditions: 10 nM simeprevir, relative to non-transduced cells
Protocol: (§2) HCT116 and HT29 transduced cells were generated following the same protocol with exception of using McCoy's 5A medium+10% foetal bovine serum as growth medium, supplemented with 2 μg/ml puromycin for selection of transduced cells.
(§3) Functional Caspase 9 activates Caspase 3, and this proteolytic activity can be determined using cleavage of non-fluorescent substrate DEVD-AMC into cleavage products DEVD and fluorescent AMC, such that AMC fluorescence signal at 430 nm is proportional to Caspase 3 activity. For the Caspase 3 assay, cells were plated in duplicate onto 6 well tissue-culture treated plates. 24 h later, one of the duplicate wells was treated with 10 nM simeprevir for 3 h. Cells lysates were analysed in triplicate using a Caspase 3 assay from BD Biosciences according to manufacturer's instruction with the modification that total protein input was normalised to 50 μg by BCA assay (LifeTechnologies). Fluorescence was determined on an Envision plate reader (PerkinElmer), Ex: 380 nm, Em: 430 nm. For quantification, RFU (raw fluorescence value) for wells that contained only the assay substrate were subtracted from all RFU derived from assay samples. Results were normalised to non-transduced, simeprevir-treated cells. Analysis was performed in Prism (GraphPad) using a One-Way-Anova followed by multiple comparisons.

[8] = tested on: Caspase 3 activity in kill switch-transduced HT29 cells; assay: Kill switch Caspase 3 functional assay; type: cell-based, human; conditions: 10 nM simeprevir, relative to non-transduced cells
Protocol: as §2, §3

MED18852 expression = assay: Transcriptional regulation assay, antibody (MED18852) expression; type: cell-based, human; conditions: DBD-PRSIM_23 (three tandem copies); 48 hours after simeprevir
From the text: The DNA sequence encoding MED18852 (SEQ ID NO: 237 and SEQ ID NO: 238, separated by an internal ribosome entry site (IRES) sequence) was purchased as a as a DNA string from GeneArt and cloned into the pZFHD1-2 vector (Takara) downstream of the ZFHD1 inducible promoter using Gibson assembly cloning. The nucleotide sequence of the final construct was confirmed by sequencing.
For the quantification of antibody expression (MED18852) utilising the transcriptional regulation assay, the cells were co-transfected with a pHet-Act1-2 plasmid (containing the HCV NS3/4A PR (S139A):PRSIM_23) and a pZFHD1 plasmid (encoding MED18852); 24 hours later wells were treated with different concentrations of simeprevir. Antibody concentration was determined in the supernatants 48 hours post the addition of simeprevir using MSD kit (Singleplex Human/NHP IgG Isotyping Kit (Mesoscale).

With COc1ccc2c(O[C@@H]3C[C@H]4C(=O)N[C@]5(C(=O)NS(=O)(=O)C6CC6)C[C@H]5/C=C\CCCCN(C)C(=O)[C@@H]4C3)cc(-c3nc(C(C)C)cs3)nc2c1C [simeprevir] the EC50 [1] was 4.57 nM, the EC50 [2] was 3.69 nM and the EC50 [3] was 4.53 nM. For the same compound, the EC50 ([3]; listed as Simeprevir) was 4.03 nM, the EC50 [4] was 8.06 nM and the “EC50 higher than for the wt complex” value ([5]; K136D versus wt complex) was roughly 30 fold. For the same compound, the EC50 ([5]; read-out: EC50 of simeprevir for induction of heterodimerisation, K136D protease, immobilised PRSIM_23) was 132 nM, the “Caspase 3 activity” value ([6]; 10 nM simeprevir 3 h, wt kill switch) was “significantly (p<0.0001) up-regulated; also recorded: significantly (p<0.0005) upregulated” and the “Caspase 3 activity” value ([6]; 10 nM simeprevir, S196A mutant kill switch) was “significantly (p<0.0005) upregulated”. For the same compound, the “Caspase 3 activity” value [7] was “significantly (p<0.0001) up-regulated”, the “Caspase 3 activity” value [8] was “significantly (p<0.0001) up-regulated” and the “expression of MED18852” value (MED18852 expression) was “dependent on the dose of simeprevir”.
